Experimental data as given in patent publication US11649242B2, “Pyrrolopyrrole compositions as pyruvate kinase (PKR) activators” (FORMA Therapeutics, Inc., priority 2017, dated 2023).

Experiments:
Type in all cases: biochemical
[1] = molecular target: PKR(G332S) (Homo sapiens, UniProt P30613, G332S); experiment: Luminescence Assay Protocol (Kinase Glo Plus), PKR(G332S/with FBP); conditions: PKRG332S, with FBP; for activation at 1.54 µM: read-out: C - AC50 LUM KGP FBP % Fold @ 1.54 μM mean; for AC50: gmean, read-out: A - AC50 LUM KGP FBP AC50 μM gmean; for Emax: read-out: B - AC50 LUM KGP FBP MAX % FOLD mean
Sequence of PKR(G332S) (P30613 whole entry G332S): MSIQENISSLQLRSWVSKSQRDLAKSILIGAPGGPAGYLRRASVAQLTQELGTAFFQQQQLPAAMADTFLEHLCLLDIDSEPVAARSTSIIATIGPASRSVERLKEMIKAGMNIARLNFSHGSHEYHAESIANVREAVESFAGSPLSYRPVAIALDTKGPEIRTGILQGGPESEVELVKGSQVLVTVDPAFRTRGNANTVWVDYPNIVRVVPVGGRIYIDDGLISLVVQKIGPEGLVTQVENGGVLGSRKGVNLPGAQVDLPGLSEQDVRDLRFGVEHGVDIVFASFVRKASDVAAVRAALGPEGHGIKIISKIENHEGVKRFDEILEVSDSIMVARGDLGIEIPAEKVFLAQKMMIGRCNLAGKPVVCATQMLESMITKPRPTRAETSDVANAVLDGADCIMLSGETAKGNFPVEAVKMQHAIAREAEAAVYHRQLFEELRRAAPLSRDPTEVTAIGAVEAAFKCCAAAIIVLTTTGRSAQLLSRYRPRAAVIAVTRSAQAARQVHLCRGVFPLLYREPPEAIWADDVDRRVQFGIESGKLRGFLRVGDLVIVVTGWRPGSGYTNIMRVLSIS
Method: (§1) Example 47: PKR(Wt/without FBP), PKR(G332S/with FBP), PKR(R510Q/without FBP)
(§2) The phosphorylation of Adenosine-5′-diphosphate (ADP) by various mutants of PKR was determined by the Kinase Glo Plus Assay (Promega) in the presence or absence of FBP [D-Fructose-1,6-diphosphate; BOC Sciences, CAS: 81028-91-3] as follows. Unless otherwise indicated, all reagents were purchased from Sigma-Aldrich. All reagents were prepared in buffer containing 50 mM Tris-HCl, 100 mM KCl, 5 mM MgCl2, and 0.01% Triton X100, 0.03% BSA, and 1 mM DTT. Enzyme and PEP [Phospho(enol) pyruvic acid] were added at 2× to all wells of an assay-ready plate containing serial dilutions of test compounds or DMSO vehicle. Final enzyme concentrations for PKR(wt), PKR(R510Q), and PKR(G332S) were 0.8 nM, 0.8 nM, and 10 nM respectively. Final PEP concentration was 100 μM. The Enzyme/PEP mixture was incubated with compounds for 30 minutes at RT before the assay was initiated with the addition of 2×ADP [Adenosine-5′-diphosphate] and KinaseGloPlus. Final concentration of ADP was 100 μM. […] For assays containing FBP, that reagent is added at 30 μM upon reaction initiation. Reactions were allowed to progress for 45 minutes at RT until luminescence was recorded by the BMG PHERAstar FS Multilabel Reader. All compounds were tested in triplicate at concentrations ranging from 42.5 μM to 2.2 nM in 0.83% DMSO.
(§3) Luminescence values were converted to % Fold increase by normalizing to the average of the DMSO control and multiplying by 100. Max, min, slope and AC50 were determined by the standard four parameter fit algorithm of ActivityBase XE Runner. Compounds were evaluated with three parameters—AC50, MAX % Fold, and % Fold@1.54 μM (FIG. 1). The AC50 value for a compound is the concentration […] corresponding to the midway between the maximum and minimum values of the four parameter logistic curve fit (i.e., at which the % fold increase along the four parameter logistic curve fit is halfway between MAX % Fold and MIN % Fold (% Fold Midpoint)), MAX % Fold is the highest fold increase observed at any concentration of compound, and % Fold@1.54 μM is the fold increase at a compound concentration of 1.54 μM. The parameter % Fold@1.54 μM was selected to capture elements of both the AC50 and MAX % Fold and to provide a ranking based on both potency and effect. The compound concentration of 1.54 μM was chosen as one that can optimally differentiate the set of compounds based on the range of activities observed.
(§4) As set forth in Tables 6 and 7 below, AC50 values (columns A, D, G) are defined as follows: ≤0.1 μM (+++); >0.1 μM and ≤1.0 μM (++); >1.0 μM and ≤40 μM (+); >40 μM (0). Max % FOLD values (columns B, E, H) are defined as follows: ≤75% (+); >75% and ≤250% (++); >250% and ≤500% (+++). % Fold@1.54 μM values (columns C, F, I) are defined as follows: ≤75% (+); >75% and ≤250% (++); >250% and ≤500% (+++).

[2] = molecular target: PKR(wt) (Homo sapiens, UniProt P30613); experiment: Luminescence Assay Protocol (Kinase Glo Plus), PKR(Wt/without FBP); conditions: without FBP; for activation at 1.54 µM / I - AC50 LUM KGP woFBP % Fold @ 1.54 μM mean: compound 1.54 μM; for activation at 1.54 µM: read-out: I - AC50 LUM KGP woFBP % Fold @ 1.54 μM mean; for AC50: gmean, read-out: G - AC50 LUM KGP woFBP AC50 μM gmean; for Emax / H - AC50 LUM KGP woFBP MAX % FOLD mean: highest % fold increase at any concentration; for Emax: read-out: H - AC50 LUM KGP woFBP MAX % FOLD mean
Sequence of PKR(wt) (P30613 whole entry): as the sequence (P30613 whole entry G332S) above, with S332G counted along it
Outline: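 Enzyme (wt 0.8 nM, R510Q 0.8 nM, G332S 10 nM) was preincubated 30 min at RT with compound and 100 μM PEP in Tris/KCl/MgCl2 buffer, then started with 100 μM ADP, plus 30 μM FBP for G332S. Luminescence was read after 45 min at RT. AC50 came from a four-parameter fit of % fold over DMSO across 42.5 μM–2.2 nM.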

[3] = molecular target: PKR(R510Q) (Homo sapiens, UniProt P30613, R510Q); experiment: Luminescence Assay Protocol (Kinase Glo Plus), PKR(R510Q/without FBP); conditions: PKRR510Q, without FBP; for activation at 1.54 µM / F - AC50 LUM KGP woFBP % Fold @ 1.54 μM mean: compound 1.54 μM; for activation at 1.54 µM: read-out: F - AC50 LUM KGP woFBP % Fold @ 1.54 μM mean; for AC50: gmean, read-out: D - AC50 LUM KGP woFBP AC50 μM gmean; for Emax / E - AC50 LUM KGP woFBP MAX % FOLD mean: highest % fold increase at any concentration; for Emax: read-out: E - AC50 LUM KGP woFBP MAX % FOLD mean
Sequence of PKR(R510Q) (P30613 whole entry R510Q): as the sequence (P30613 whole entry G332S) above, with S332G, R510Q counted along it
Method: as §1, §2, §3, §4

[4] = highest % fold increase at any concentration

Row | SMILES | activation at 1.54 µM ([1]; compound 1.54 μM) | AC50 [1] | Emax [1, 4] | activation at 1.54 µM [2] | AC50 [2] | Emax [2] | activation at 1.54 µM [3] | AC50 [3] | Emax [3] | I - AC50 LUM KGP woFBP % Fold @ 1.54 μM mean [2] | H - AC50 LUM KGP woFBP MAX % FOLD mean [2] | F - AC50 LUM KGP woFBP % Fold @ 1.54 μM mean [3] | E - AC50 LUM KGP woFBP MAX % FOLD mean [3] | C - AC50 LUM KGP FBP % Fold @ 1.54 μM mean ([1]; compound 1.54 μM) | B - AC50 LUM KGP FBP MAX % FOLD mean [1, 4]
1 | O=C(C1COc2ccccc21)N1CC2=C(C1)CN(S(=O)(=O)c1ccc3ncsc3c1)C2 (stereo not drawn) [Example 43, (5-(benzo[d]thiazol-6-ylsulfonyl)-3,4,5,6-tetrahydropyrrolo[3,4-c]pyrrol-2(1H)-yl)(2,3-dihydrobenzofuran-3-yl)methanone] | 75 to 250% | 0.1 to 1 µM | 75 to 250% | 250 to 500% | 0.1 to 1 µM | 250 to 500% | 250 to 500% | 1 to 40 µM | 250 to 500% |  |  |  |  |  | 
2 | O=C([C@H](CO)c1ccccc1)N1CC2=C(C1)CN(S(=O)(=O)c1cccnc1)C2 [Example 50, (2S)-3-hydroxy-2-phenyl-1-[5-(pyridine-3-sulfonyl)-1H,2H,3H,4H,5H,6H-pyrrolo[3,4-c]pyrrol-2-yl]propan-1-one] | 75 to 250% | 0.1 to 1 µM | 75 to 250% | 75 to 250% | 0.1 to 1 µM | 250 to 500% | 250 to 500% | 0.1 to 1 µM | 250 to 500% |  |  |  |  |  | 
3 | CC(C)(CO)C(=O)N1CC2=C(C1)CN(S(=O)(=O)c1ccc3c(c1)NCCO3)C2 [Example 37, 1-(5-((3,4-dihydro-2H-benzo[b][1,4]oxazin-6-yl)sulfonyl)-3,4,5,6-tetrahydropyrrolo[3,4-c]pyrrol-2(1H)-yl)-3-hydroxy-2,2-dimethylpropan-1-one] | 75 to 250% | > 40 µM | 75 to 250% | 75 to 250% | 0.1 to 1 µM | 75 to 250% | 250 to 500% | ≤ 0.1 µM | 250 to 500% |  |  |  |  |  | 
4 | O=C(C(CO)c1ccccn1)N1CC2=C(C1)CN(S(=O)(=O)c1cnc3c(c1)OCCO3)C2 (single isomer, unassigned) [Example 3, (R or S)-1-(5-((2,3-dihydro-[1,4]dioxino[2,3-b]pyridin-7-yl)sulfonyl)-3,4,5,6-tetrahydropyrrolo[3,4-c]pyrrol-2(1H)-yl)-3-hydroxy-2-(pyridin-2-yl)propan-1-one] | 75 to 250% | 1 to 40 µM | 75 to 250% |  | ≤ 0.1 µM |  |  | 0.1 to 1 µM |  | ++ (>75% and ≤250% (++)) | ++ (>75% and ≤250% (++)) | ++ (>75% and ≤250% (++)) | +++ (>250% and ≤500% (+++)) |  | 
5 | O=C([C@H]1CCOC1)N1CC2=C(C1)CN(S(=O)(=O)c1ccc(OC(F)F)cc1)C2 [Example 16, (S)-(5-((4-(difluoromethoxy)phenyl)sulfonyl)-3,4,5,6-tetrahydropyrrolo[3,4-c]pyrrol-2(1H)-yl)(tetrahydrofuran-3-yl)methanone] | 75 to 250% | 0.1 to 1 µM | 75 to 250% | 75 to 250% | 0.1 to 1 µM | 250 to 500% | 75 to 250% | 1 to 40 µM | 250 to 500% |  |  |  |  |  | 
6 | O=C(C1CCCOC1)N1CC2=C(C1)CN(S(=O)(=O)c1ccc3c(c1)NCCO3)C2 (single isomer, unassigned) [Example 34, (R or S)-(5-((3,4-dihydro-2H-benzo[b][1,4]oxazin-6-yl)sulfonyl)-3,4,5,6-tetrahydropyrrolo[3,4-c]pyrrol-2(1H)-yl)(tetrahydro-2H-pyran-3-yl)methanone] |  | 0.1 to 1 µM |  |  | ≤ 0.1 µM |  |  | ≤ 0.1 µM |  | ++ (>75% and ≤250% (++)) | ++ (>75% and ≤250% (++)) | +++ (>250% and ≤500% (+++)) | +++ (>250% and ≤500% (+++)) | ++ (>75% and ≤250% (++)) | ++ (>75% and ≤250% (++))
7 | O=C([C@@H]1CCOC1)N1CC2=C(C1)CN(S(=O)(=O)c1ccc(OC(F)F)cc1)C2 [Example 14, (R)-(5-((4-(difluoromethoxy)phenyl)sulfonyl)-3,4,5,6-tetrahydropyrrolo[3,4-c]pyrrol-2(1H)-yl)(tetrahydrofuran-3-yl)methanone] | 75 to 250% | 0.1 to 1 µM | 75 to 250% | 250 to 500% | 0.1 to 1 µM | 250 to 500% | 75 to 250% | 1 to 40 µM | 250 to 500% |  |  |  |  |  | 
8 | COCCC(=O)N1CC2=C(C1)CN(S(=O)(=O)c1ccc3c(c1)N(C)CCO3)C2 [Example 53, 3-methoxy-1-(5-((4-methyl-3,4-dihydro-2H-benzo[b][1,4]oxazin-6-yl)sulfonyl)-3,4,5,6-tetrahydropyrrolo[3,4-c]pyrrol-2(1H)-yl)propan-1-one] | 75 to 250% | > 40 µM | 75 to 250% | 75 to 250% | 0.1 to 1 µM | 75 to 250% | 75 to 250% | 1 to 40 µM | 75 to 250% |  |  |  |  |  | 
9 | O=C([C@H](CO)c1ccccc1)N1CC2=C(C1)CN(S(=O)(=O)c1ccc(C(F)(F)F)nc1)C2 [Example 52, (2S)-3-hydroxy-2-phenyl-1-(5-{[6-(trifluoromethyl)pyridin-3-yl]sulfonyl}-1H,2H,3H,4H,5H,6H-pyrrolo[3,4-c]pyrrol-2-yl)propan-1-one] | 75 to 250% | 0.1 to 1 µM | 75 to 250% | 75 to 250% | 0.1 to 1 µM | 75 to 250% | 75 to 250% | 1 to 40 µM | 250 to 500% |  |  |  |  |  | 
10 | O=C([C@H](CO)c1ccccc1)N1CC2=C(C1)CN(S(=O)(=O)c1ccc(OC(F)F)cc1)C2 [Example 31, (S)-1-(5-((4-(difluoromethoxy)phenyl)sulfonyl)-3,4,5,6-tetrahydropyrrolo[3,4-c]pyrrol-2(1H)-yl)-3-hydroxy-2-phenylpropan-1-one] | 75 to 250% | ≤ 0.1 µM | 75 to 250% | 250 to 500% | ≤ 0.1 µM | 250 to 500% | 250 to 500% | ≤ 0.1 µM | 250 to 500% |  |  |  |  |  | 
11 | CN1CCOc2ccc(S(=O)(=O)N3CC4=C(CN(C(=O)C(CO)c5ccccc5)C4)C3)cc21 (stereo not drawn) [Example 46, 3-hydroxy-1-(5-((4-methyl-3,4-dihydro-2H-benzo[b][1,4]oxazin-6-yl)sulfonyl)-3,4,5,6-tetrahydropyrrolo[3,4-c]pyrrol-2(1H)-yl)-2-phenylpropan-1-one] | 75 to 250% | > 40 µM | 75 to 250% | 75 to 250% | ≤ 0.1 µM | 75 to 250% | 75 to 250% | > 40 µM | 75 to 250% |  |  |  |  |  | 
